Here are results for 1 molecule from article PMC6934184, “Selective DNA-PKcs inhibition extends the therapeutic index of localized radiotherapy and chemotherapy” (The Journal of Clinical Investigation, 2019).

The target of the assay is T1, MLCK (MLCK2) (Homo sapiens, UniProt Q32MK0).
T1 construct: purchased Thermo Fisher Scientific (Life Technologies) SelectScreen
The assay is described as follows: SelectScreen LanthaScreen. The settings on record: read-out: % displacement. In kind it is binding. The procedure, abridged:
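NU5455 was profiled across the SelectScreen Broad panel of kinase activity and binding assays. Z'LYTE reactions such as CSF1R ran at apparent Km ATP, while the Adapta CAMK1 assay used ATP listed as 10. Values are given as percent.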
(In general: Time-resolved FRET reads energy transfer from a long-lived donor to a nearby acceptor.)

T1 sequence (Q32MK0 whole entry): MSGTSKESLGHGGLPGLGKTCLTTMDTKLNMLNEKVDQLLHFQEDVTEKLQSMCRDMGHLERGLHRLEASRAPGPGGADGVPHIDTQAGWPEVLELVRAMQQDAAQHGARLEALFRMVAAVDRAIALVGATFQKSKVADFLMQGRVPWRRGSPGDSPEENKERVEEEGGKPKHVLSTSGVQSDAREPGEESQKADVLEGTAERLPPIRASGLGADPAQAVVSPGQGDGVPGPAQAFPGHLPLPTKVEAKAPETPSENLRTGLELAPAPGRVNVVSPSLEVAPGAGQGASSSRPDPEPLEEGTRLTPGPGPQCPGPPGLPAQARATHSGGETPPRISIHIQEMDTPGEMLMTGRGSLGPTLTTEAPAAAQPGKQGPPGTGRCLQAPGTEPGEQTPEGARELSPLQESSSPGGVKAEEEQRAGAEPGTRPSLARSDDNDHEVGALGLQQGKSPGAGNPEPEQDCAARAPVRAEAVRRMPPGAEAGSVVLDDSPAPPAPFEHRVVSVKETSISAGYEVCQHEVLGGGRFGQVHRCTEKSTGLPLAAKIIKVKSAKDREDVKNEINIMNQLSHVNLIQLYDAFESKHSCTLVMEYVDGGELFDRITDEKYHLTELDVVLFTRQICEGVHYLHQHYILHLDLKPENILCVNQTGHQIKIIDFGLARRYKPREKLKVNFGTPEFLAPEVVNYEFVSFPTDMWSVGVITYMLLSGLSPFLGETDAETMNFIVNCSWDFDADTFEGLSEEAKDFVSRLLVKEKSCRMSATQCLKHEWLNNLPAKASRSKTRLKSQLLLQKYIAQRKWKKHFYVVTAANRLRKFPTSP

For the molecule `CN(C(=O)CN1CCOCC1)c1ccc2sc3c(-c4cccc5c(=O)cc(N6CC7CCC(C6)O7)oc45)cccc3c2c1` [NU5455], the inhibition at 1 µM came out at 1.5%.
